Like-named read-outs stand apart in the source and are kept apart here.
Key:
[1] = test system: sandwich-cultured human hepatocytes; assay: Drug-induced cholestasis (DIC) assay: urea formation in sandwich-cultured human hepatocytes with and without the bile salt mixture; details: lowest in vitro concentration with DICI < 0.78 / Cmax,total; for DICI-based SM obtained with the ‘original’ LOAEL method 24 h: 24 h incubation; for DICI-based SM obtained with the ‘original’ LOAEL method 48 h: 48 h incubation
Source text: Drug-induced cholestasis (DIC) is a major cause of attrition during drug development and post-marketing withdrawal. Early detection of DIC is crucial for avoiding financial losses and improving drug safety. Preclinical assays for DIC detection often rely on evaluation of the test compound towards individual cellular targets such as their inhibitory potential towards the bile salt export pump (BSEP) by using BSEP membrane vesicles. However, the underlying mechanisms of DIC development are more complex involving multiple other transporters and nuclear receptors. A more comprehensive in vitro model such as sandwich-cultured human hepatocytes (SCHH) are more suited due to the presence of metabolizing enzymes and transporters relevant to bile salt disposition. The assay described here relies on changes in the ability of SCHH to produce urea from ammonia in the absence and presence of a (patho-)physiologically relevant bile salt mixture. Ammonia is detoxified in the hepatocyte by the urea cycle to form non-toxic urea. Measuring changes in urea production allows for the quantitative evaluation of the hepatocyte's biochemical and functional integrity. The colorimetric quantitation of urea formation is based on the reaction between urea and diacetylmonoxime.
By determining the ratio of urea formation after incubation with test compound in absence and in presence of the bile salt mixture, the DIC index (DICI) value can be calculated. […] It was previously established that a compound with a SM below 30 can be considered to display increased risk for causing cholestasis in the clinic.
If longer incubations are required (e.g. 48 h), the medium is changed again after 24 h (day 6) with fresh medium containing the same initial concentrations of test compound and bile salts as 24 h before.
• Solution 1: culture medium with no compound and 0.2% DMSO. […] This solution should be filtered through a 0.2 µm filter and prewarmed for 30 min at 37°C. • Solution 4: culture medium with double concentrated test compound. […] This solution should be filtered through a 0.2 µm filter and prewarmed for 30 min at 37°C. • Solution 5: control medium with bile salts, prepared by mixing solution 1 and solution 2 in a 1:1 ratio. • Solution 6: culture medium with positive control without bile salts, prepared by mixing solution 1 and solution 3 in a 1:1 ratio. • Solution 7: culture medium with positive control with bile salts, prepared by mixing solution 2 and solution 3 in a 1:1 ratio. • Solution 8: culture medium with test compound without bile salts, prepared by mixing solution 1 and solution 4 in a 1:1 ratio. • Solution 9: culture medium with test compound with bile salts, prepared by mixing solution 2 and solution 4 in a 1:1 ratio.
• 1. On day 5, aspirate the medium and preincubate the cells with solution 1, solution 6 or solution 8 for 2 h. Note: this preincubation step is performed to enable the compounds to interact with the cellular machinery. • 2. After 2 h, aspirate the medium and immediately incubate the cells with solution 1, solution 5, solution 6, solution 7, solution 8 or solution 9 for 22 h.
The urea assay is performed on day 6 or day 7 for 24 h and 48 h incubations, respectively.
• Solutions for the color reagent. […] Note: perform this procedure on ice as this is an exothermic reaction. Wear appropriate protective gear. • ○ Solution B prepared by mixing the thiosemicarbazide solution and the diacetyl monoxime in a 1:1 ratio. • Incubation buffer: HBSS containing 10 mM HEPES, 2 mM glutamine, 10 mM ammonium chloride and 3 mM ornithine, filtered through a 0.2 µm filter and prewarmed at 37°C. • 96-well thermostable plate with aluminum cover slip.
• 1. Aspirate the culture medium. • 2. Wash the wells twice with 250 µL prewarmed incubation buffer. Aspirate the remaining buffer. • 3. Add 125 µL prewarmed incubation buffer to each well and keep the plate at 37°C for 1 h. • 4.

[2] = test system: sandwich-cultured human hepatocytes; details: SCHH, ref [6],[7], cited from earlier work; for DICI 24 h Mean: 24 h exposure; for DICI 48 h Mean: 48 h exposure
[3] = design: method as in per compound in column References of Table 3 ([3], [24]-[44]); details: mean total peak plasma concentration in humans; ref per compound in Table 3 ([3], [24]-[44]); cited from earlier work

CN(C)CCCN1c2ccccc2Sc2ccc(Cl)cc21 [Chlorpromazine, chlorpromazine]
DICI-based SM obtained with the ‘original’ LOAEL method 24 h [1]: 265.96
DICI 24 h Mean ([2]; 10 µM test compound): 0.48
Cmax,total [3]: 0.0376 µM

C1CCC(C(CC2CCCCN2)C2CCCCC2)CC1 (centres unmarked) [Perhexiline, perhexiline]
DICI-based SM obtained with the ‘original’ LOAEL method 24 h [1]: 30.09
DICI-based SM obtained with the ‘original’ LOAEL method 48 h [1]: 30.09
DICI 24 h Mean ([2]; 3 µM test compound): 1.00
DICI 48 h Mean ([2]; 3 µM test compound): 0.80
DICI 24 h Mean ([2]; 9 µM test compound): 1.03
DICI 48 h Mean ([2]; 9 µM test compound): 0.98
DICI 24 h Mean ([2]; 65 µM test compound): 1.10
DICI 48 h Mean ([2]; 65 µM test compound): 1.02

CN(CCOc1ccc(CC2SC(=O)NC2=O)cc1)c1ccccn1 (centres unmarked) [Rosiglitazone, rosiglitazone]
DICI-based SM obtained with the ‘original’ LOAEL method 24 h [1]: 56.31

Cc1c(C)c2c(c(C)c1O)CCC(C)(COc1ccc(CC3SC(=O)NC3=O)cc1)O2 (centres unmarked) [Troglitazone, troglitazone]
DICI-based SM obtained with the ‘original’ LOAEL method 24 h [1]: 15.65
DICI-based SM obtained with the ‘original’ LOAEL method 48 h [1]: 15.65
DICI 24 h Mean ([2]; 20 µM test compound): 0.98
DICI 48 h Mean ([2]; 20 µM test compound): 1.09
DICI 24 h Mean ([2]; 50 µM test compound): 1.02
DICI 48 h Mean ([2]; 50 µM test compound): 1.00
DICI 24 h Mean ([2]; 75 µM test compound): 0.78
DICI 48 h Mean ([2]; 75 µM test compound): 0.79
DICI 24 h Mean ([2]; 100 µM test compound): 0.74
DICI 48 h Mean ([2]; 100 µM test compound): 0.24
Cmax,total [3]: 6.39 µM

Cc1ccc(C(=O)c2cc(O)c(O)c([N+](=O)[O-])c2)cc1 [Tolcapone, tolcapone]
DICI-based SM obtained with the ‘original’ LOAEL method 24 h [1]: 1.05
DICI-based SM obtained with the ‘original’ LOAEL method 48 h [1]: 1.05
DICI 24 h Mean ([2]; 5 µM test compound): 0.98
DICI 48 h Mean ([2]; 5 µM test compound): 1.01
DICI 24 h Mean ([2]; 10 µM test compound): 1.05
DICI 48 h Mean ([2]; 10 µM test compound): 0.89
DICI 24 h Mean ([2]; 50 µM test compound): 0.91
DICI 48 h Mean ([2]; 50 µM test compound): 0.79
Cmax,total [3]: 47.6 µM

COC(=O)N[C@H](C(=O)N[C@@H](Cc1ccccc1)[C@@H](O)CN(Cc1ccc(-c2ccccn2)cc1)NC(=O)[C@@H](NC(=O)OC)C(C)(C)C)C(C)(C)C [Atazanavir, atazanavir]
DICI-based SM obtained with the ‘original’ LOAEL method 24 h [1]: 31.12
DICI-based SM obtained with the ‘original’ LOAEL method 48 h [1]: 31.12
DICI 24 h Mean ([2]; 50 µM test compound): 0.87
DICI 48 h Mean ([2]; 50 µM test compound): 0.86
DICI 24 h Mean ([2]; 150 µM test compound): 1.19
DICI 48 h Mean ([2]; 150 µM test compound): 0.73
Cmax,total [3]: 4.82 µM

CO[C@H]1C[C@H](O[C@H]2[C@H](C)[C@@H](O[C@@H]3O[C@H](C)C[C@H](N(C)C)[C@H]3OC(C)=O)[C@@H](C)C[C@@]3(CO3)C(=O)[C@H](C)[C@@H](OC(C)=O)[C@@H](C)[C@@H](C)OC(=O)[C@@H]2C)O[C@@H](C)[C@@H]1OC(C)=O [Troleandomycin, troleandomycin]
DICI 24 h Mean ([2]; 10 µM test compound): 1.00
DICI 48 h Mean ([2]; 10 µM test compound): 0.83
DICI 24 h Mean ([2]; 12.5 µM test compound): 1.41
DICI 24 h Mean ([2]; 20 µM test compound): 1.12
DICI 48 h Mean ([2]; 20 µM test compound): 0.91
DICI 24 h Mean ([2]; 25 µM test compound): 1.13
DICI 24 h Mean ([2]; 50 µM test compound): 0.93
DICI 24 h Mean ([2]; 100 µM test compound): 0.97

Clc1ccccc1CN1CCc2sccc2C1 [Ticlopidine, ticlopidine]
Cmax,total [3]: 2.898 µM

CCc1nn(CCCN2CCN(c3cccc(Cl)c3)CC2)c(=O)n1CCOc1ccccc1 [Nefazodone, nefazodone]
DICI-based SM obtained with the ‘original’ LOAEL method 48 h [1]: 7.04
DICI 24 h Mean ([2]; 10 µM test compound): 0.69
DICI 48 h Mean ([2]; 10 µM test compound): 1.18
DICI 24 h Mean ([2]; 30 µM test compound): 0.77
DICI 48 h Mean ([2]; 30 µM test compound): 0.37
DICI 24 h Mean ([2]; 130 µM test compound): 1.09
Cmax,total [3]: 4.26 µM

CC(C)c1nc(CN(C)C(=O)N[C@H](C(=O)N[C@@H](Cc2ccccc2)C[C@H](O)[C@H](Cc2ccccc2)NC(=O)OCc2cncs2)C(C)C)cs1 [Ritonavir, ritonavir]
Cmax,total [3]: 13.24 µM

COc1ccccc1Oc1c(NS(=O)(=O)c2ccc(C(C)(C)C)cc2)nc(-c2ncccn2)nc1OCCO [Bosentan, bosentan]
DICI-based SM obtained with the ‘original’ LOAEL method 24 h [1]: 27.06
DICI-based SM obtained with the ‘original’ LOAEL method 48 h [1]: 27.06
DICI 24 h Mean ([2]; 50 µM test compound): 1.07
DICI 48 h Mean ([2]; 50 µM test compound): 1.06
DICI 24 h Mean ([2]; 100 µM test compound): 0.99
DICI 48 h Mean ([2]; 100 µM test compound): 0.87
DICI 24 h Mean ([2]; 200 µM test compound): 1.15
DICI 48 h Mean ([2]; 200 µM test compound): 1.02
Cmax,total [3]: 7.39 µM

CC(=O)CC(c1ccccc1)c1c(O)c2ccccc2oc1=O (centres unmarked) [Warfarin, warfarin]
DICI-based SM obtained with the ‘original’ LOAEL method 24 h [1]: 71.74
DICI 24 h Mean ([2]; 500 µM test compound): 1.31

CCc1ccc(CCOc2ccc(CC3SC(=O)NC3=O)cc2)nc1 (centres unmarked) [Pioglitazone, pioglitazone]
DICI-based SM obtained with the ‘original’ LOAEL method 24 h [1]: 101.69
DICI-based SM obtained with the ‘original’ LOAEL method 48 h [1]: 101.69
DICI 24 h Mean ([2]; 50 µM test compound): 1.15
DICI 24 h Mean ([2]; 100 µM test compound): 1.00
DICI 24 h Mean ([2]; 300 µM test compound): 0.94
Cmax,total [3]: 2.95 µM

CCN(CC)C(=O)/C(C#N)=C/c1cc(O)c(O)c([N+](=O)[O-])c1 [Entacapone, entacapone]
DICI-based SM obtained with the ‘original’ LOAEL method 24 h [1]: 29.95
DICI-based SM obtained with the ‘original’ LOAEL method 48 h [1]: 29.95
DICI 24 h Mean ([2]; 10 µM test compound): 1.11
DICI 48 h Mean ([2]; 10 µM test compound): 1.02
DICI 24 h Mean ([2]; 30 µM test compound): 1.07
DICI 48 h Mean ([2]; 30 µM test compound): 0.98
DICI 24 h Mean ([2]; 130 µM test compound): 0.62
DICI 48 h Mean ([2]; 130 µM test compound): 0.10
Cmax,total [3]: 4.34 µM

CN(C)C(=N)N=C(N)N [Metformin, metformin]
DICI 24 h Mean ([2]; 150 µM test compound): 1.09
DICI 48 h Mean ([2]; 150 µM test compound): 1.34
DICI 24 h Mean ([2]; 300 µM test compound): 1.03
DICI 48 h Mean ([2]; 300 µM test compound): 1.26
DICI 24 h Mean ([2]; 900 µM test compound): 1.12
DICI 48 h Mean ([2]; 900 µM test compound): 1.18
Cmax,total [3]: 7.75 µM
